This passage reports IC50 results from ChEMBL document CHEMBL2346642, “Antioxidant and antiproliferative activity of glycosides obtained by biotransformation of xanthohumol” (Bioorg Med Chem Lett, 2013).

The subject of one assay is MCF7. The assay is described as follows: Antiproliferative activity against human MCF7 cells after 72 hrs by SRB assay. It counts as functional, cell-based. As to conditions: MCF7, 72 h; call rule not given here.
Another assay deals with PC-3. In words: Antiproliferative activity against human PC3 cells after 72 hrs by SRB assay. It counts as functional, cell-based. A general note: In SRB staining, fixed cells bind dye roughly in proportion to their protein.
For a further assay, the system named is HT-29. The assay is described as follows: Antiproliferative activity against human HT-29 cells after 72 hrs by SRB assay. It counts as functional, cell-based.
In assay [1] the test system is Radical scavenging activity. The assay is described as follows: Antioxidant activity assessed as DPPH radical scavenging activity by UV-vis spectrophotometry analysis. It counts as functional. (The DPPH test is a chemical assay of radical scavenging.)
The mark [2] stands for this setting: Homo sapiens, PC-3, 72 h, read-out: IC50.
[3] abbreviates: Homo sapiens, HT-29, 72 h, read-out: IC50.

By IC50 is commonly meant the point on the concentration scale where inhibition reaches its midpoint. Take `COc1cc(O[C@@H]2O[C@H](CO)[C@@H](O)[C@H](O)[C@H]2O)c(CC=C(C)C)c2c1C(=O)C[C@@H](c1ccc(O)cc1)O2`: the IC50 was 146 µM with MCF7, “Not Active” in the assay on PC-3 (pc-3), “Not Active” in the assay on HT-29 (ht-29) and 6.13 µM in assay [1].
For the molecule `COc1cc(O[C@@H]2O[C@H](CO)[C@@H](OC)[C@H](O)[C@H]2O)c(CC=C(C)C)c(O)c1C(=O)/C=C/c1ccc(O)cc1`, the IC50 in the assay with MCF7 is 19.9 µM; with PC-3 (setting [2]), 47.9 µM; with HT-29 (setting [3]), 51.8 µM; in assay [1] it was 9.06 µM.
Take `O=C1O[C@H]([C@@H](O)CO)C(O)=C1O` [ASCORBIC ACID]: the IC50 in assay [1] is 0.52 µM.
For the molecule `COc1cc(O[C@@H]2O[C@H](CO)[C@@H](O)[C@H](O)[C@H]2O)c(CC=C(C)C)c(O)c1C(=O)/C=C/c1ccc(O)cc1` [XANTHOHUMOL-4'-O-BETA-D-GLUCOPYRANOSIDE], the IC50 in the assay on MCF7 came to 51.4 µM; in the assay on PC-3 (setting [2]) it was 58.1 µM; with HT-29 (setting [3]), 63.6 µM; in assay [1], 0.77 µM.
As for `COc1cc(O)c(CC=C(C)C)c(O)c1C(=O)/C=C/c1ccc(O)cc1` [XANTHOHUMOL], the IC50 in assay [1] was found to be 1.98 µM.
